Literature values in patent US10105334B2, “Particle formulations of all-trans retinoic acid and transforming growth factor beta for the treatment of type 1 diabetes mellitus” (University of Pittsburgh—Of the Commonwealth System of …, priority 2014, dated 2018).

Settings: Tsang et al., Cytokine 7:389-97 (1995)

TGFβ: growth factor and immunomodulatory cytokine
ED50 (physiologically-active concentration): 0.04-0.2 ng/mL
